These results are taken from patent US11230543B2, “Biaryl monobactam compounds and methods of use thereof for the treatment of bacterial infections” (priority 2015, dated 2022).

Counter-ions that a name gives are not always drawn.

In test [1] the test system is Klebsiella pneumoniae expressing KPC-1 (CL6569). Kind of test: Antibiotic activity: growth inhibitory concentration (OD600), Klebsiella pneumoniae CL6569. The test is classed as cell-based. Conditions: lowest concentration inhibiting 95% of bacterial growth; in the presence of β lactamase inhibitor Relebactam 4 μg/mL; 35±2° C. for 22 hours; tested range 100 μM to 0.098 μM. Summed up:
(§1)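 Clinical strains at ~2×10^5 CFU/mL in cation-adjusted Mueller-Hinton II broth, with relebactam at 4 μg/mL final; compounds 100 μM to 0.098 μM final. After 22 hours at 35±2° C, OD600 read; MITC95 is lowest concentration giving 95% growth inhibition.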

The subject of test [2] is Pseudomonas aeruginosa expressing AmpC (CL5701). Kind of test: Antibiotic activity: growth inhibitory concentration (OD600), Pseudomonas aeruginosa CL5701. The test is classed as cell-based. Conditions: lowest concentration inhibiting 95% of bacterial growth; in the presence of β lactamase inhibitor Relebactam 4 μg/mL; 35±2° C. for 22 hours; tested range 100 μM to 0.098 μM. A digest of the protocol:
as §1

`C[n+]1cc(-c2ccc(OC[C@H](O/N=C(/C(=O)N[C@@H]3C(=O)N(OS(=O)(=O)[O-])C3(C)C)c3csc(N)n3)C(=O)O)cc2)cn1CCCNCCN` [Example 102, (S)-3-((E)-2-(((S)-2-(4-(1-(3-((2-aminoethyl)amino)propyl)-2-methyl-1H-pyrazol-2-ium-4-yl)phenoxy)-1-carboxyethoxy)imino)-2-(2-aminothiazol-4-yl)acetamido)-2,2-dimethyl-4-oxoazetidin-1-yl sulfate]: the “KP_CL6569 MITC95” value in test [1] was found to be 0.125 µM. The “PA_CL5701 MITC95” value in test [2] worked out at 3.125 µM.
On to `C[n+]1cc(-c2ccc(OC[C@H](O/N=C(\C(=O)N[C@@H]3C(=O)N(OS(=O)(=O)O)C3(C)C)c3csc(N)n3)C(=O)O)cc2)cn1CCCNCC1CNC1` [Example 103, (S)-3-((E)-2-(2-aminothiazol-4-yl)-2-(((S)-2-(4-(1-(3-((azetidin-3-ylmethyl)amino)-propyl)-2-methyl-1H-pyrazol-2-ium-4-yl)phenoxy)-1-carboxyethoxy)imino)acetamido)-2,2-dimethyl-4-oxoazetidin-1-yl sulfate, 3TFA], for which the “KP_CL6569 MITC95” value in test [1] was 0.09766 µM. Besides, in test [2], the “PA_CL5701 MITC95” value stood at 3.125 µM.
Turning to `C[n+]1cc(-c2ccc(OC[C@H](O/N=C(\C(=O)N[C@@H]3C(=O)N(OS(=O)(=O)O)C3(C)C)c3csc(N)n3)C(=O)O)cc2)cn1CCCNCCCN` [Example 104, (S)-3-((E)-2-(((S)-2-(4-(1-(3-((3-aminopropyl)amino)-propyl)-2-methyl-1H-pyrazol-2-ium-4-yl)phenoxy)-1-carboxyethoxy)imino)-2-(2-aminothiazol-4-yl)acetamido)-2,2-dimethyl-4-oxoazetidin-1-yl sulfate, 3TFA], the “KP_CL6569 MITC95” value in test [1] amounted to 0.1953 µM. In addition, the “PA_CL5701 MITC95” value in test [2] stood at 6.25 µM.
For `C[n+]1cc(-c2ccc(OC[C@](C)(O/N=C(\C(=O)N[C@@H]3C(=O)N(OS(=O)(=O)[O-])C3(C)C)c3csc(N)n3)C(=O)O)cc2F)cn1CCCN` [Example 105, (S)-3-((Z)-2-((((Sn-1-(4-(1-(3-aminopropyl)-2-methyl-1H-pyrazol-2-ium-4-yl)-3-fluorophenoxy)-2-carboxypropan-2-yl)oxy)imino)-2-(2-aminothiazol-4-yl)acetamido)-2,2-dimethyl-4-oxoazetidin-1-yl sulfate], in that order: 0.3906 µM and 3.125 µM.
On to `C[n+]1cc(-c2ccc(OC[C@H](O/N=C(\C(=O)N[C@@H]3C(=O)N(OS(=O)(=O)[O-])C3(C)C)c3csc(N)n3)C(=O)O)nn2)cn1CCCN` [Example 106, (S)-3-((Z)-2-(((S)-2-((6-(1-(3-aminopropyl)-2-methyl-1H-pyrazol-2-ium-4-yl)pyridazin-3-yl)oxy)-1-carboxyethoxy)imino)-2-(2-aminothiazol-4-yl)acetamido)-2,2-dimethyl-4-oxoazetidin-1-yl sulfate], for which the “KP_CL6569 MITC95” value in test [1] amounted to 50 µM. In addition, in test [2], the “PA_CL5701 MITC95” value came to 100 µM.
For `Cn1c(-c2ccc(OC[C@](C)(O/N=C(\C(=O)N[C@@H]3C(=O)N(OS(=O)(=O)O)C3(C)C)c3csc(N)n3)C(=O)O)cc2)cn(CCCN)c1=N` [Example 107, (S)-3-((Z)-2-((((S)-1-(4-(1-(3-aminopropyl)-2-imino-3-methyl-2,3-dihydro-1H-imidazol-4-yl)phenoxy)-2-carboxypropan-2-yl)oxy)imino)-2-(2-aminothiazol-4-yl)acetamido)-2,2-dimethyl-4-oxoazetidin-1-yl sulfate], in that order: 6.25 µM and 50 µM.
For `CC1(C)[C@H](NC(=O)/C(=N\O[C@@H](COc2ccc(Nc3cc[n+](CC4CNC4)cc3)nc2)C(=O)O)c2csc(N)n2)C(=O)N1OS(=O)(=O)[O-]` [Example 108, (S)-3-((Z)-2-(2-aminothiazol-4-yl)-2-(((S)-2-((6-((1-(azetidin-3-ylmethyl)pyridin-1-ium-4-yl)amino)pyridin-3-yl)oxy)-1-carboxyethoxy)imino)acetamido)-2,2-dimethyl-4-oxoazetidin-1-yl sulfate] the same measures were 0.7813 µM and 12.5 µM.
As for `CC1(C)[C@H](NC(=O)/C(=N\O[C@@H](COc2ccc(-n3cc[n+](CC4CNC4)c3)nc2)C(=O)O)c2csc(N)n2)C(=O)N1OS(=O)(=O)[O-]` [Example 109, (S)-3-((Z)-2-(2-aminothiazol-4-yl)-2-(((S)-2-((6-(3-(azetidin-3-ylmethyl)-1H-imidazol-3-ium-1-yl)pyridin-3-yl)oxy)-1-carboxyethoxy)imino)acetamido)-2,2-dimethyl-4-oxoazetidin-1-yl sulfate], the “KP_CL6569 MITC95” value in test [1] worked out at 0.7813 µM. Moreover, the “PA_CL5701 MITC95” value in test [2] stood at 12.5 µM.
For `CC1(C)[C@H](NC(=O)/C(=N\O[C@@H](COc2ccc(-n3cc[n+](CCC[N+](C)(C)C)c3)nc2)C(=O)O)c2csc(N)n2)C(=O)N1OS(=O)(=O)O` [Example 110, (S)-3-((Z)-2-(2-aminothiazol-4-yl)-2-(((S)-1-carboxy-2-((6-(3-(3-(trimethylammonio)propyl)-1H-imidazol-3-ium-1-yl)pyridin-3-yl)oxy)ethoxy)imino)acetamido)-2,2-dimethyl-4-oxoazetidin-1-yl sulfate], the “KP_CL6569 MITC95” value in test [1] turned out to be 1.563 µM. In addition, the “PA_CL5701 MITC95” value in test [2] came to 50 µM.
For `CC1(C)[C@H](NC(=O)/C(=N\O[C@@H](COc2cnc(-n3cc[n+](CCCN)c3)nc2)C(=O)O)c2csc(N)n2)C(=O)N1OS(=O)(=O)[O-]` [Example 111, (S)-3-((Z)-2-(((S)-2-((2-(3-(3-aminopropyl)-1H-imidazol-3-ium-1-yl)pyrimidin-5-yl)oxy)-1-carboxyethoxy)imino)-2-(2-aminothiazol-4-yl)acetamido)-2,2-dimethyl-4-oxoazetidin-1-yl sulfate] the same measures were 1.563 µM and 50 µM.
For `CC1(C)[C@H](NC(=O)/C(=N\O[C@@H](COc2ccc(-n3cc[n+](CCCN)c3)nc2)C(=O)O)c2csc(N)n2)C(=O)N1OS(=O)(=O)[O-]` [Example 112, (S)-3-((Z)-2-(((S)-2-((6-(3-(3-aminopropyl)-1H-imidazol-3-ium-1-yl)pyridin-3-yl)oxy)-1-carboxyethoxy)imino)-2-(2-aminothiazol-4-yl)acetamido)-2,2-dimethyl-4-oxoazetidin-1-yl sulfate], in that order: 0.7813 µM and 10.42 µM.
For `CC1(C)[C@H](NC(=O)/C(=N\O[C@@](C)(COc2ccc(-n3cc[n+](CCCN)c3)nc2)C(=O)O)c2csc(N)n2)C(=O)N1OS(=O)(=O)[O-]` [Example 113, (S)-3-((Z)-2-((((S)-1-((6-(3-(3-aminopropyl)-1H-imidazol-3-ium-1-yl)pyridin-3-yloxy)-2-carboxypropan-2-yl)oxy)imino)-2-(2-aminothiazol-4-yl)acetamido)-2,2-dimethyl-4-oxoazetidin-1-yl sulfate] the same measures were 0.7813 µM and 12.5 µM.
Turning to `Cn1c(-c2ccc(OC[C@H](O/N=C(\C(=O)N[C@@H]3C(=O)N(OS(=O)(=O)O)C3(C)C)c3csc(N)n3)C(N)=O)cc2)cn(CCCN)c1=N` [Example 114, (S)-3-((Z)-2-((((S)-1-amino-3-(4-(1-(3-aminopropyl)-2-imino-3-methyl-2,3-dihydro-1H-imidazol-4-yl)phenoxy)-1-oxopropan-2-yl)oxy)imino)-2-(2-aminothiazol-4-yl)acetamido)-2,2-dimethyl-4-oxoazetidin-1-yl sulfate], the “KP_CL6569 MITC95” value in test [1] was found to be 1.563 µM. The “PA_CL5701 MITC95” value in test [2] came to 50 µM.
For `CCOC(=O)[C@H](COc1ccc(-c2cn(CCCN)[n+](C)c2)cc1)O/N=C(\C(=O)N[C@@H]1C(=O)N(OS(=O)(=O)[O-])C1(C)C)c1csc(N)n1` [Example 115, (S)-3-((Z)-2-((((S)-3-(4-(1-(3-aminopropyl)-2-methyl-1H-pyrazol-2-ium-4-yl)phenoxy)-1-ethoxy-1-oxopropan-2-yl)oxy)imino)-2-(2-aminothiazol-4-yl)acetamido)-2,2-dimethyl-4-oxoazetidin-1-yl sulfate] the same measures were 12.5 µM and 100 µM.
As for `CCOC(=O)[C@H](COc1ccc(-c2cn(CCCN)c(=N)n2C)cc1)O/N=C(\C(=O)N[C@@H]1C(=O)N(OS(=O)(=O)O)C1(C)C)c1csc(N)n1` [Example 116, Ethyl (S)-3-(4-(1-(3-aminopropyl)-2-imino-3-methyl-2,3-dihydro-1H-imidazol-4-yl)phenoxy)-2-((((Z)-1-(2-aminothiazol-4-yl)-2-(((S)-2,2-dimethyl-4-oxo-1-(sulfooxy)azetidin-3-yl)amino)-2-oxoethylidene)amino)oxy)propanoate], in test [1], the “KP_CL6569 MITC95” value was 6.25 µM. Further, the “PA_CL5701 MITC95” value in test [2] was 50 µM.
For `COC(=O)[C@H](COc1ccc(-c2cn(CCCN)[n+](C)c2)cc1)O/N=C(\C(=O)N[C@@H]1C(=O)N(OS(=O)(=O)[O-])C1(C)C)c1csc(N)n1` [Example 117, (S)-3-((Z)-2-((((S)-3-(4-(1-(3-aminopropyl)-2-methyl-1H-pyrazol-2-ium-4-yl)phenoxy)-1-methoxy-1-oxopropan-2-yl)oxy)imino)-2-(2-aminothiazol-4-yl)acetamido)-2,2-dimethyl-4-oxoazetidin-1-yl sulfate], in that order: 3.125 µM and 25 µM.
For `CC1(C)[C@H](NC(=O)/C(=N\O[C@@H](COc2ccc(-n3ccn(CCCN)c3=N)nc2)C(=O)O)c2csc(N)n2)C(=O)N1OS(=O)(=O)O` [Example 118, (S)-3-((6-(3-(3-aminopropyl)-2-imino-2,3-dihydro-1H-imidazol-1-yl)pyridin-3-yl)oxy)-2-((((Z)-1-(2-aminothiazol-4-yl)-2-(((S)-2,2-dimethyl-4-oxo-1-(sulfooxy)azetidin-3-yl)amino)-2-oxoethylidene)amino)oxy)propanoic acid] the same measures were 0.3906 µM and 6.25 µM.
